Measurements reported in patent US10266496B2, “Carboxy substituted (hetero) aromatic ring derivatives and preparation method and uses thereof” (SUNSHINE LAKE PHARMA CO., LTD., priority 2015, dated 2019).
pIC50: −log10 of the molar value. Like-named read-outs stand apart in the source and are kept apart here.

Assays:
[1] = biological target: xanthine oxidase (Homo sapiens (Human), UniProt P47989); test: XO (Xanthine Oxidase) inhibition activity assay; assay type: biochemical; settings: substrate xanthine, absorbance at 290 nm
Experimental: Then the diluted solution was added to a 384 well plate at 30 μL/well, and then to each well was added 30 μL of 21 mU/mL xanthine oxidase. […] After being incubated at room temperature for 5 min, absorbance at 290 nm was read by using PHERAstar FS microplate reader.

[2] = biological target: hURAT1 (Homo sapiens (Human), UniProt Q96S37); test: URAT1 (urate anion transporter) inhibition activity assay: [8-14C] uric acid absorption inhibition in HEK293T cell line stably expressing hURAT1; assay type: cell-based; settings: [8-14C] uric acid uptake, HEK293T cells stably expressing hURAT1
Description: Inhibition ratio (%)=[1−(^14C uptaken by drug well−^14C uptaken by negative well)/(^14C uptaken by buffer well−^14C uptaken by negative well)]×100;
Wherein, the negative well was unvaccinated cell line […].

[3] = Pharmacokinetic evaluation in SD rats; assay type: in vivo
Experimental: SD rats were fasted for 15 h overnight and grouped randomly according to body weight. The test compound was dissolved in a solution of 5% DMSO+5% Solutol+90% Saline. For intravenous administration of the test group, the animals were administered with a dose of 1 mg/kg; for oral administration of the test group, the animals were administered with a dose of 5 mg/kg. Then venous blood (approximately 0.2 mL) was collected at the time point of 0, 0.083 (only intravenous injection group), 0.25, 0.5, 1.0, 2.0, 5.0, 7.0 and 24 h after drug administration. The venous blood was placed in EDTAK2 anticoagulant tube and centrifuged at 11000 rpm for 2 min. Plasma was collected and stored at −20° C. or at −70° C. until LC/MS/MS analysis. The drug concentration in plasma was measured at each time point, and pharmacokinetic parameters were calculated according to the curve of drug concentration-time.

[4] = rat, plasma, SD rats, iv, 1 mg/kg
[5] = rat, plasma, SD rats, iv, 1 mg/kg, read-out: Cmax
[6] = rat, plasma, SD rats, po, 5 mg/kg

Chain of xanthine oxidase (P47989 whole entry, species assumed): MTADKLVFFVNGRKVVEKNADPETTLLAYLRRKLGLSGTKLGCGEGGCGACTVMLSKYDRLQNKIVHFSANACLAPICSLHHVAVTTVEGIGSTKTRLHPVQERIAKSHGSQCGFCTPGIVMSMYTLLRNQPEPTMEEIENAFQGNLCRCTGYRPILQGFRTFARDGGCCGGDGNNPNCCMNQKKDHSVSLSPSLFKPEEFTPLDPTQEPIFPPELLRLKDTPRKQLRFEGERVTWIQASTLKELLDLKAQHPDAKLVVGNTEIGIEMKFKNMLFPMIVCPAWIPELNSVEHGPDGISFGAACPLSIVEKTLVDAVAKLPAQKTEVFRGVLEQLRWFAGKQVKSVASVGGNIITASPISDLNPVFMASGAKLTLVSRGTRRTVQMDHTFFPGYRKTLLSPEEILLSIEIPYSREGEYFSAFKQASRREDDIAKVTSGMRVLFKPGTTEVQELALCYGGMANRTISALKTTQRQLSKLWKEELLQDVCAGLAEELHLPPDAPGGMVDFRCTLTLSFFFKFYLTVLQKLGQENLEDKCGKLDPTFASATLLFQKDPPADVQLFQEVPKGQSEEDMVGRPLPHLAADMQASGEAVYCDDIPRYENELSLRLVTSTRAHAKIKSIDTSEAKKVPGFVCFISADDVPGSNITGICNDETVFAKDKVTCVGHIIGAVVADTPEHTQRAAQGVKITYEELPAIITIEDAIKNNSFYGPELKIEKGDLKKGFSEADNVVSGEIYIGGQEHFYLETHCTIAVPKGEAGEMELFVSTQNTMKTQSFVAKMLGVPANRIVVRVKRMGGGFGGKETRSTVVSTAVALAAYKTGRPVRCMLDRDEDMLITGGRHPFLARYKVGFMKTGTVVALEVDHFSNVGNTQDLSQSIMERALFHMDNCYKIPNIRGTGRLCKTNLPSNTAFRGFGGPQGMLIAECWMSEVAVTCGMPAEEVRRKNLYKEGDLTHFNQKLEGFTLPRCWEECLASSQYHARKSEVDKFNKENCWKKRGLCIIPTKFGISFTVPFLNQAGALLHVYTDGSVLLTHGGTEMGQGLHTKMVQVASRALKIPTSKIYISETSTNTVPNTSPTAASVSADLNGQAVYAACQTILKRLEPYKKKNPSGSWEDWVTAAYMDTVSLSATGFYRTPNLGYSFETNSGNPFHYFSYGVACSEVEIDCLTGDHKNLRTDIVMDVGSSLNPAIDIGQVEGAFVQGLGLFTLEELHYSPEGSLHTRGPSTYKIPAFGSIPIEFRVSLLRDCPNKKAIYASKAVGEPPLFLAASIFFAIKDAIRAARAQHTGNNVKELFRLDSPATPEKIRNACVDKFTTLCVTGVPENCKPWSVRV
Chain of hURAT1 (Q96S37 whole entry): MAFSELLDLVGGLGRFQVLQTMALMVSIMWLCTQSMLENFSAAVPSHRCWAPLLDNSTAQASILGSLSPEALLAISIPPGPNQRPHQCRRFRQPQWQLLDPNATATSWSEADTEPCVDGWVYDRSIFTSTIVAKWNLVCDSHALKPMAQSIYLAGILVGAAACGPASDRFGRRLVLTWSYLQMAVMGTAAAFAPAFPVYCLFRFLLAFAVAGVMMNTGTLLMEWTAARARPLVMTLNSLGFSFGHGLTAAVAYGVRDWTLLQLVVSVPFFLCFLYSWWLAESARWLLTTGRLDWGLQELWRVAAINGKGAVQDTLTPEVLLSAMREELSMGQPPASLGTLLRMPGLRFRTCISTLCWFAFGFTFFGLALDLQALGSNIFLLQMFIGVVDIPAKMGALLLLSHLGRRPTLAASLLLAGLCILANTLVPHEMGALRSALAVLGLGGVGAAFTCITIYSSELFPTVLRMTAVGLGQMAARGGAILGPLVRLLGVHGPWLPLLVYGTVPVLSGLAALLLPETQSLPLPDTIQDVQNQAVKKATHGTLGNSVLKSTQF

SMILES | pIC50 [1] | pIC50 [2] | F ([3]; SD, rat, in vivo) | AUClast ([3]; SD, rat, in vivo, iv, 1 mg/kg) | Vd ([3]; SD, rat, in vivo, iv, 1 mg/kg) | AUClast ([3]; SD, rat, in vivo, po, 5 mg/kg) | T1/2 ([3]; SD, rat, in vivo, po, 5 mg/kg) | AUC(0-inf) [3, 4] | MRT inf [3, 4] | Tmax [3, 4] | half-life [3, 4] | Cmax [3, 5] | AUC(0-inf) [3, 6] | MRT inf [3, 6] | Tmax [3, 6] | other results
N#Cc1cc(-c2ccc(C(=O)O)c(O)c2)c2occc2c1 [Example 1, 4-(5-cyanobenzofuran-7-yl)-2-hydroxybenzoic Acid] | 7.71 | 6.85 | 131% | 6860 ng·h/mL | 0.399 L/kg | 44400 ng·h/mL | 3.45 h | 7000 ng·h/mL | 2.84 h | 0.083 h | 1.53 h | 6030 ng/mL | 45800 ng·h/mL | 5.98 h | 0.417 h | clearance ([3]; SD, rat, in vivo, iv, 1 mg/kg): 2.4 mL/min/kg
N#Cc1cc(-c2ccc(C(=O)O)c(O)c2)c2ccccc2c1 [Example 2, 4-(3-cyanonaphthalene-1-yl)-2-hydroxybenzoic Acid] |  |  |  |  |  |  |  | 2210 ng·h/mL | 1.86 h | 0.083 h | 3.1 h | 4380 ng/mL | 8140 ng·h/mL | 1.5 h | 0.417 h | F ([3]; SD rats, po 5 mg/kg vs iv 1 mg/kg): 74.9%; AUC(0-t) [3, 4]: 2170 ng·h/mL; clearance ([3]; rat, plasma, SD rats, iv, 1 mg/kg, read-out: Cl): 7.59 mL/min/kg; Vd ([3]; rat, plasma, SD rats, iv, 1 mg/kg, read-out: Vss): 0.828 L/kg; AUC(0-t) [3, 6]: 8130 ng·h/mL; half-life [3, 6]: 3.86 h; Cmax ([3]; rat, plasma, SD rats, po, 5 mg/kg, read-out: Cmax): 6290 ng/mL
N#Cc1cc2c(c(-c3ccc(C(=O)O)c(O)c3)c1)OCC2 [Example 4, 4-(5-cyano-2,3-dihydrobenzofuran-7-yl)-2-hydroxybenzoic Acid] | 7.22 | 6.30 |  |  |  |  |  |  |  |  |  |  |  |  |  | 
N#Cc1cc(-c2ccc(C(=O)O)c(O)c2)c2[nH]ccc2c1 [Example 7, 4-(5-cyano-1H-indol-7-yl)-2-hydroxybenzoic Acid] | 7.96 | 5.54 |  |  |  |  |  |  |  |  |  |  |  |  |  | 
N#Cc1cc(-c2ccc(C(=O)O)c(O)c2)c2ccoc2c1 [Example 21, 4-(6-cyanobenzofuran-4-yl)-2-hydroxybenzoic Acid] | 7.40 | 6.76 |  |  |  |  |  |  |  |  |  |  |  |  |  | 
N#Cc1cc(-c2ccc(C(=O)O)c(O)c2)c2oc(F)cc2c1 [Example 29, 4-(5-cyano-2-fluorobenzofuran-7-yl)-2-hydroxybenzoic Acid] | 7.46 | 7.42 | 145% | 10900 ng·h/mL | 0.311 L/kg | 81700 ng·h/mL | 2.84 h | 11300 ng·h/mL | 3.49 h | 0.083 h | 2.76 h | 4540 ng/mL | 82100 ng·h/mL | 3.8 h | 1.33 h | Cl ([3]; SD, rat, in vivo, iv, 1 mg/kg): 1.51 mL/min/kg
N#Cc1cc(-c2ccc(C(=O)O)c(O)c2)c2ccsc2c1 [Example 31, 4-(6-cyanobenzo[b]thiophen-4-yl)-2-hydroxybenzoic Acid] | 7.24 | 7.35 |  |  |  |  |  |  |  |  |  |  |  |  |  | 
N#Cc1cc(-c2ccc(C(=O)O)c(O)c2)c2oc(Cl)cc2c1 [Example 40, 4-(2-chloro-5-cyanobenzofuran-7-yl)-2-hydroxybenzoic Acid] | 7.27 | 7.52 | 94% | 5480 ng·h/mL | 0.401 L/kg | 28100 ng·h/mL | 3.05 h | 6020 ng·h/mL | 2.42 h | 0.083 h | 2.33 h | 4090 ng/mL | 28200 ng·h/mL | 4.95 h | 0.5 h | Cl ([3]; SD, rat, in vivo, iv, 1 mg/kg): 2.77 mL/min/kg; Cmax ([3]; SD, rat, in vivo, po, 5 mg/kg): 3700 ng/mL
